In US20260217768A1, “NANOPARTICLE-NHE3 PEPTIDE TO TREAT DIARRHEA” (The Johns Hopkins University, priority 2023, published 2026):

How the values were obtained:
mouse ileal loops [1] = experiment: Basal fluid absorption in closed mouse ileal loops, nanoparticle-conjugated peptides, with or without Tenapanor; assay type: in vivo; details: for residual fluid / fluid absorption in closed ileal loops compared to CP2: nanoparticle conjugated peptide 400 nM for 4 h, then 150-μL PBS for 30 min
Experimental: (§1) All in vivo studies were performed on 8-12 week old C57B1/6N mice anesthetized with isofluorane and kept at 37° C. via heating lamps and rectal thermal probes.
(§2) Effect on basal fluid transport and effect of Tenapanor. Mice operated on as above had 3-4 cm closed ileal loops inoculated with 150-μL PBS containing 400-nM nanoparticle-CP-2 or -N3SP-1Δ7. After 4 h, the loops were drained and inoculated with 150-μL PBS. 30 min later, the animals were sacrificed and loop weight/length determined. In parallel studies, Tenapanor (10 μM) was present in both incubation periods. Similar to the BODIPY-conjugated peptide studies, the effects of nanoparticle-CP-2 or N3SP-1Δ7 (4 μM) compared to PBS alone were determined on net fluid secretion produced by inoculation of 0.1-μg CTx. The nanoparticle-peptides plus 0.1-μg CTx in 150-μL PBS were inoculated in 3-4 cm long closed ileal loops. Additional controls included loops exposed only to 150-μL PBS and those only exposed to the CTx/PBS. 4 h later, the animals were sacrificed and loop weight/cm length was determined.

mouse jejunum = details: in vivo
[2] = target: NHERF2 binding to NHE3 C-terminal peptides (Homo sapiens, UniProt Q15599); experiment: NHE3 peptide-NHERF2 overlay assay; details: peptide at 5 times the concentration of NHERF2 and MBP-NHE3 fusion peptides, n=5
Experimental: Two NHE3 C-terminal peptides containing the N3SP-1 sequence were separated on SDS-Page gradient gels and purified NHERF binding determined. Equal concentrations of NHE3 peptides and NHERF2 were used. Prior to NHERF2 addition, the blots were overlayed with 5× the concentration of N3SP-1Δ7 vs CP2.
Binding of purified full-length GST-NHERF2 to two NHE3 C-terminal peptides that contain the N3SP-1 sequence was determined in the presence of equal concentrations of CP-2 compared to N3SP-1Δ7. CP-2 and N3SP-1Δ7 peptides were used at 5 times the concentration of the NHERF2 fusion protein and the MBP-NHE3 fusion peptides.

mouse ileal loops [3] = experiment: CTx-induced fluid secretion in closed mouse ileal loops, nanoparticle-conjugated peptides; assay type: in vivo
Experimental: as §1, §2

NHERF2 binding to NHE3 C-terminal peptides, sequence (Q15599 whole entry, the tested form may be a part): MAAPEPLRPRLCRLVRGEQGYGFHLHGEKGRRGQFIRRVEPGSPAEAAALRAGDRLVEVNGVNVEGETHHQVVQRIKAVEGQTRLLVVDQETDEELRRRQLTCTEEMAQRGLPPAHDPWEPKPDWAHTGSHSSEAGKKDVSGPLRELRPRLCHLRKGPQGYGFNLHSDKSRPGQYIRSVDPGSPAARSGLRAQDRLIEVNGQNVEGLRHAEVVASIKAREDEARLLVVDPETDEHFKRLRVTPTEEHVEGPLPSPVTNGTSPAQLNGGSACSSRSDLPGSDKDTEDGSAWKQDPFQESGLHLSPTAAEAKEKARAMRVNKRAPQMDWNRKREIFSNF

N3SP-1 lacking first seven N-terminal amino acids: RPSTVEASVSYLLRESASAVCLDMQSLEQRR [Peptide N3SP-1Δ7]
residual fluid / fluid absorption in closed ileal loops compared to CP2 (mouse ileal loops [1]): increased fluid absorption
residual fluid / fluid absorption in closed ileal loops compared to CP2 (mouse ileal loops [1]; listed as N3SP-147): significantly less amount of residual fluid
residual fluid in presence of Tenapanor, CP2 vs N3SP-1Δ7 (mouse ileal loops [1]; nanoparticle conjugated peptide 400 nM, Tenapanor (10 μM) in both incubation periods): no difference in residual fluid
effect on CTx-stimulated net fluid secretion (loop weight/cm) (mouse jejunum): did not alter the efficacy
NHERF2 binding to NHE3 C-terminal peptides compared to control peptide CP-2 [2]: preferentially reduces NHERF2 binding
NHERF2 binding to NHE3 C-terminal peptides compared to control peptide CP-2 ([2]; listed as N3SP-147): significantly reduced NHERF2 binding
reduction of cholera toxin induced secretion (mouse ileal loops [3]; mouse, in vivo): approximately 42%
effect on CTx-induced fluid in ileal loops (loop weight/length) (mouse ileal loops [3]; nanoparticle-peptide 4 μM with 0.1-μg CTx, 4 hours): significantly less fluid
